From US20260376293A1, “METHODS FOR STUDYING GPR158 PHARMACOLOGY AND IDENTIFICATION OF ITS LIGANDS” (UNIVERSITY OF FLORIDA RESEARCH FOUNDATION, INCORPORATED, priority 2022, published 2026)

Legend:
[1] = target: T1, GPR158 R173A mutant (Homo sapiens, UniProt Q5T848, R173A); assay: Radioligand binding assay on GPR158 mutant R173A
T1 sequence (Q5T848 24-1215 R173A): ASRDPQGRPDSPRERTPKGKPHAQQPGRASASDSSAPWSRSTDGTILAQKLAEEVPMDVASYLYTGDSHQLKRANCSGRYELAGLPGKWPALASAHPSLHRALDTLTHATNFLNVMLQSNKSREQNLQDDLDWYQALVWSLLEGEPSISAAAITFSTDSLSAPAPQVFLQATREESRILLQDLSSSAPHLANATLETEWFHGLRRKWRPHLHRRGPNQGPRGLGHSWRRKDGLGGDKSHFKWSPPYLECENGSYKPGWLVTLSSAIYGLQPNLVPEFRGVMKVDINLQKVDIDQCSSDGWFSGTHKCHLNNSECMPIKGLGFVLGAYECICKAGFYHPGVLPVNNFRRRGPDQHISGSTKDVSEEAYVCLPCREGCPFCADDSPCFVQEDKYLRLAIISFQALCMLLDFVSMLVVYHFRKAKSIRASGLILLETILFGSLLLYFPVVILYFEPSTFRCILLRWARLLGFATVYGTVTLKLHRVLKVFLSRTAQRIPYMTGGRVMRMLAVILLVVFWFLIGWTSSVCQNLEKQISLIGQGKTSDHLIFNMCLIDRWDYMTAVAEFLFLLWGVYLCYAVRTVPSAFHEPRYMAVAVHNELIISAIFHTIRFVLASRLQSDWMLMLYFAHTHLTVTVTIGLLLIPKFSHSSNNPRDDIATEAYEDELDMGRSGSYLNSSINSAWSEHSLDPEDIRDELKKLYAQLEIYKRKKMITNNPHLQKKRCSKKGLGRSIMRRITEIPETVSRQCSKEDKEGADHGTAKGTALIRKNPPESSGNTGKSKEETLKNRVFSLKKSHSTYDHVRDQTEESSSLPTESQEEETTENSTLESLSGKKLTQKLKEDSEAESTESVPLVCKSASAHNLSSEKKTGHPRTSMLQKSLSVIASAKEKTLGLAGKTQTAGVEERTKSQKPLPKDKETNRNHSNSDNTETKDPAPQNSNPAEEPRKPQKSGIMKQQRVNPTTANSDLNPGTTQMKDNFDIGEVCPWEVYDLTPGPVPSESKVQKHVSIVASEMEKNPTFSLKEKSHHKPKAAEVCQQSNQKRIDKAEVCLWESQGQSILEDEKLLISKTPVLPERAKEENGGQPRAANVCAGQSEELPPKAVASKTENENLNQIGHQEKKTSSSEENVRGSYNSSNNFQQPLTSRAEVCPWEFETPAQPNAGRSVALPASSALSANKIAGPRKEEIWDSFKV
Excerpt: FIGS. 11A-11G. Probing Cache domain of GPR158 as a ligand binding site A) Computational docking of glycine into putative ligand binding pocket on GPR158 Cache domain. Glycine and directly interacting residues are shown as sticks. Hydrogen bonds and van der Waals interactions are shown as dotted lines. B) Diagram showing interactions in the docked model of glycine against GPR158 Cache domain. Hydrogen bonds are shown as dashed lines, van der Waals interactions are shown as intersecting semicircles, and the secondary structural context of Ser266 and Tyr269 is shown as an arc. Dagger indicates a residue implicated in glycine binding in 11A. C) Radioligand binding assay of ^3H-glycine in cells expressing GPR158 mutants. Data shown mean±s.e.m. of 3 independent experiments, *p<0.05, ns=p>0.05 one-way ANOVA. D) Functional evaluation of GPR158 mutants in GAP BRET assay. Error bars are mean±s.e.m. of 3 independent experiments in triplicate. *p<0.05, **p<0.01, ***p<0.001, ****p<0.0001, ns=p>0.05, two-way ANOVA Columns with no fill (Ctrl), columns with angled-line fill (Glycine) E) Quantification of glycine inhibitory effect on kGAP normalized to the effect seen with WT receptor. […]
Whole cell binding was performed using cDNA of GPR158-venus or each GPR158-venus mutant or empty pcDNA3.1+ for ctrl cells. […] Finally radioactivity was measured using the liquid scintillation analyzer Tri-Carb 4910 TR.

[2] = system: stress-induced depressive rat; details: cited from earlier work

Structure (SMILES) | [^3H]-glycine binding [1] | antidepressant effect [2]
NCC(=O)O [^3H-glycine, [^3H]-glycine] | near complete loss | 
NCCS(=O)(=O)O [taurine, 2-aminoethanesulfonic acid] |  | antidepressant effect
